Data taken from patent US20150359668A1, “LIGHT DELIVERY DEVICE AND RELATED COMPOSITIONS, METHODS AND SYSTEMS” (CALIFORNIA INSTITUTE OF TECHNOLOGY, priority 2011, published 2015).
Where “and” joins values, the source holds several entries; their conditions need not be identical. Identical values can stand only once.

Legend:
cornea [1] = assay: drug diffusion into the cornea of intact eyes (extraction assay, diffusion model fit); conditions: for diffusivity, D / partition coefficient, k: from DPBS
Method: Siena for Medical Science supplied porcine eyes from 3-4 month old swine. Eyes were stored in ocular balanced saline solution on ice until use within 48 hours post mortem. […] The epithelial cell layer was removed by scraping with a scalpel. […] The drug solution containing the eye was gently agitated using a rocker for a specified “drug contact time” (tc,cornea ranging from 0 to 4 hours). After the drug contact time, the eye was removed from the drug solution, and excess solution on the cornea was dabbed away with a Kimwipe. The eye was dissected using a scalpel blade and a pair of scissors to cut around the corneoscleral limbus to separate out the cornea. The tissue section was placed onto a trephine punch to cut out a 9.5-mm diameter corneal cross-section.
(§1) Quantitative assay of the amount of drug delivered—Experiments were performed for five drug contact times (four samples each): for the cornea, tc,cornea=0.25, 0.5, 1, 2, and 4 hrs, and for the sclera, tc,sclera=0.5, 2, 4, 7.5, and 120 hrs. Each experiment was repeated four times. For each experiment, the 9.5-mm diameter tissue cross-section obtained as described above was placed into a 50 mL centrifuge tube and immersed in 50 mL of extractant (doubled-distilled water for cornea or DPBS for sclera) then placed on a rocker to extract the drug molecules (FIG. 40). […] After a first extraction time te,1 of 8 hours, the tissue specimen was then transferred into another 50 mL of fresh extractant and the extract was retained for analysis.
(§2) The concentration of the drug in the extract was determined using fluorimetry. […] The fluorescence of each extract was measured and concentration was determined based on calibration curves prepared for each compound using a series of solutions with known concentrations. The extraction process was repeated using successively longer extraction times until there was no detectable fluorescence in the supernatant.
(§3) Porcine eyes closely resemble a sphere with diameter ˜25 mm. The cornea and sclera are the targeted tissues and both have thicknesses that are on the order of 1 mm. Since these tissue thicknesses are less than a tenth of the diameter of the eye, they are modeled as semi-infinite slabs. Each tissue is approximated as a uniform material. Fick's diffusion equation is given by
(§4) where C(z,t) is the drug concentration inside the tissue, t is the time since the exterior surface of the tissue was placed in contact with the drug solution, z is the distance into the tissue from its exterior surface, and D is the diffusion coefficient. […] For short contact times, the concentration falls to zero before the profile reaches the endothelium. For longer contact times, the boundary condition that the concentration falls to zero far into the system is still used as a first approximation (neglecting the change in material properties at the endothelium and neglects different transport processes in the aqueous or vitreous).
(§5) where area represents the cross-sectional area of the tissue sample and L is the thickness of the tissue sample. At long drug contact time, the predicted concentration changes very slowly and approaches a value governed by the partition coefficient.
(§6) with i being the individual data point and N being the total data points used for the fit. Data fitting was performed by writing a program in MATLAB software.

sclera = assay: drug diffusion into the sclera of intact eyes (extraction assay, diffusion model fit); conditions: sclera; for diffusivity, D / partition coefficient, k: from DPBS
From the text: Orbital tissues were removed with scissors to expose the sclera. […] After the contact time, the eye was removed from the drug solution, and excess solution on the sclera was dabbed away with a Kimwipe. The eye was dissected using a scalpel blade and a pair of scissors to obtain a posterior scleral section on the temporal side near the optic nerve. The tissue section was placed onto a trephine punch to cut out a 9.5-mm diameter cross-section.
as §1, §2, §3, §4, §5, §6

cornea [2] = assay: model of photodynamic collagen cross-linking profile in the cornea
From the text: Design of experiments—The collagen gel photorheological technique discussed in Examples 29-31 was used to gather collagen cross-linking rate data in order to model the extent and distribution of cross-link formation in the tissue. Collagen gel samples have uniform drug concentration profiles based on the preparation technique developed Examples 29-31. The protocols for collagen gel preparation and photorheological measurement are described in the Methods Section of Example 29-31. The pairs of drug concentrations and collagen gel thicknesses were selected such that the intensity profile is approximately uniform throughout the sample. Based on light intensity calculations, this is achieved when the ratio of light penetration depth over sample thickness is 1.2. The light intensity profile in the sample is given by:
Design of the model—Photodynamic collagen cross-linking depends on both the local photosensitizer concentration and the light intensity which are functions of treatment parameters: drug concentration, contact time (duration the drug is in contact with the tissue), delay time (period between end of contact time and beginning of irradiation), and irradiation time (FIGS. 46A-46C). […] The concentration profile can be calculated using Fick's diffusion equation. The light intensity also varies along the tissue as determined by Beer's law. […]

[3] = physiological pH; cited from earlier work
cell viability = conditions: cited from earlier work
collagen gel = collagen gel photorheology: storage modulus during photo-activated cross-linking; conditions: for cross-linking rate as % of the rate without singlet oxygen quenchers: in air; for rate of change in storage modulus, Ġ′ (increased by): 30-minute irradiation
guinea pig eyes = assay: guinea pig form-deprivation myopia and normal ocular growth after subconjunctival treatment; conditions: Set A, eyes enucleated immediately after treatment
[4] = 0.02% eosin Y or 0.1% riboflavin, 0 mW/cm^2

O=C([O-])c1ccccc1-c1c2cc(Br)c(=O)c(Br)c-2oc2c(Br)c([O-])c(Br)cc12.[Na+].[Na+] [Eosin Y, eosin Y]
drug contact time at which delivered amount levels off (cornea [1]; cornea): 2 h
diffusivity, D (cornea [1]; cornea): 62 μm^2/s and 62 ± 22 μm^2/s
partition coefficient, k (cornea [1]; cornea): 4.3±0.7 and 4.3
diffusivity, D (cornea [1]; cornea, listed as eosin Y): 62 μm^2/s
partition coefficient, k (cornea [1]; cornea, listed as eosin Y): 4.3
diffusion coefficient without the binding effect, Dab (cornea [1]; cornea, Dab=kD): 267 μm^2/s
calculated permeability (cornea [1]; through porcine cornea): 0.31 μm/s
permeability (sclera): 0.099 μm/s
time for the concentration to level off (sclera): approximately 30 hours
drug in second extract, % of the first extract (sclera; 2 hours contact time): approximately 20%
diffusivity, D (sclera): 6.2 ± 1.7 μm^2/s and 6.2 μm^2/s
partition coefficient, k (sclera): 13.0±1.1 and 13.0
diffusivity, D (sclera; listed as eosin Y): 6.2 μm^2/s
partition coefficient, k (sclera; listed as eosin Y): 13
diffusion coefficient without the binding effect, Dab (sclera; Dab=kD): 81 μm^2/s
characteristic time to penetrate the entire cornea, L^2/(4*D) (cornea [2]): ~15 min
ionization in solution [3]: negatively ionized
concentration with excellent cell viability (up to) (cell viability): up to 20 mM
cross-linking rate as % of the rate without singlet oxygen quenchers (collagen gel; 10 mM ascorbic acid): 43±23%
modulus change during the last 10 minutes, no irradiation (collagen gel; [4]): 59±34 Pa
ΔG′ over the 30-minute period without irradiation (collagen gel; [4]): −23±76 Pa
modulus change during the 10 minutes after cessation of irradiation (collagen gel; 0.02% eosin Y, 6 mW/cm^2, 0.1% riboflavin, 3 mW/cm^2): 61±136 Pa
change of storage modulus ΔG′ over the 30-minute irradiation (collagen gel; 0.02% eosin Y, 6 mW/cm^2 at 530±15 nm, 0.1% riboflavin, 3 mW/cm^2 at 370±12 nm): 793±118 Pa
cross-linking rate as % of the rate without singlet oxygen quenchers (collagen gel; 20 mM ascorbic acid): 23±10%
cross-linking rate as % of the rate without singlet oxygen quenchers (collagen gel; 100 mM ascorbic acid): −7±6%
cross-linking rate as % of the rate without singlet oxygen quenchers (collagen gel; 100 mM sodium azide): 34±8%
cross-linking rate in the absence of oxygen (reduced to) (collagen gel; argon vs air): 12%
rate of change in storage modulus, Ġ′ (increased by) (collagen gel; in the absence of oxygen (in argon)): 3.4±2.3 Pa/min
rate of change in storage modulus, Ġ′ (increased by) (collagen gel; in the presence of oxygen (in air), 0.05% riboflavin 370 nm or 0.02% eosin Y 530 nm): 28.4±5.1 Pa/min
distribution in the sclera after subconjunctival injection (guinea pig eyes): pink staining from Eosin Y over the entire sclera
